Data published in US8809631B2, “Screening method for selecting plants that show reduced wound-induced surface discolouration and plant and plant parts thus obtained” (Rijk Zwaan Zaadteelt en Zaadhandel B.V., priority 2007, dated 2014).
Entries after “also recorded” stand apart in the source; their conditions may differ.

Tests used:
lettuce leaf discs = assay: leaf disc pinking assay (discs between wetted filter papers, 5° C., 7 days); type: cell-based; details: for effect on pink discolouration (formation of the pink dye): applied during the reaction; for effect on pink discolouration (formation of the pink dye) / concentration at which the pink discolouration was completely inhibited: lettuce leaf discs; for effect on output signal of the screen (brown or pink discolouration of the wound surface): FIG. 1 legend; for concentration at which the pink discolouration was completely inhibited: applied during the assay, 5° C., 7 days
Description: One embodiment of this invention is based on the surprising finding that when discs from leaves, in particular lettuce leaves, are taken and incubated between wetted filter papers at 5° C., after approximately 4 days the formation of a pink dye at the edges of the leaf discs becomes apparent. Suitable filter paper is filter paper type 1450 CV, Ref no. 10 313 281 from Schleier & Schuell, Microscience GmbH, Dassel, Germany. Upon further incubation, the signal intensifies and after approximately one week the maximum intensity has been reached. The formation of the pink dye occurs specifically at wound surfaces.
A phenotypic assay was developed in which leaf discolouration of lettuce induced by wounding can readily be assessed. This approach allows young plant screening for discolouration. Leaf discs of 5 mm diameter were taken from young or mature plants and placed between wetted filter papers in a tray. The system was incubated at 5° C. for 7 days. During the incubation a pink dye developed at the wound site of the leaf disc which became clearly visible as a printed circle on the filter paper (FIG. 2).

[1] = test system: lettuce outer leaf midrib tissue discs; assay: midrib disc browning assay (wetted filter paper, 16° C.); type: cell-based; details: 10 mM L-cysteine, approximately 72 hours
Description: Lettuce plants were grown to maturity and parts of outer leaves were taken by cutting discs from the rib tissue. The discs were incubated on wetted filter paper at 16° C. After approximately 72 hours, the wound surface had turned brown.

[2] = treatment of formed dye with reducing agent after the wound response was completed; parameters: species or system lettuce; details: added after the wound response was completed
Description: As L-cysteine is known to react with o-quinones, which are PPO products, by converting them back into colourless diphenols, the effects of L-cysteine on the pink dye coming from lettuce leaf discs was determined. In parallel the effect of L-cysteine was determined on the melanin formation upon incubation with L-DOPA. Leaf discs were taken and incubated according to the procedures described above. After the wound response was completed, a concentration series of L-cysteine was added to the leaf disc and the change in colour was monitored.

[3] = test system: field-grown lettuce plant; assay: L-cysteine treatment of leaf discs from field-grown lettuce showing pinking; details: 1 mM L-cysteine, approximately 30 minutes, room temperature
Description: This is typically observed when plants have been stressed, for example by conditions of severe water logging. The leaf was used to prepare leaf discs which were incubated immediately by 1 mM L-cysteine.

lettuce PPO = assay: L-DOPA leaf disc assay (conversion of L-DOPA into melanin); type: cell-based
Description: In addition to assays which address wound-induced discolouration in a broad sense, the method according to this invention also allows to screen in a more specific manner for mutants which have a reduced PPO activity. A phenotypic assay which is indicative for PPO activity was developed by using leaf discs which were incubated in the presence of 1.5 mM L-DOPA. As a black discolouration became apparent it can be concluded that L-DOPA can readily be converted by the polyphenol oxidising system at the wound surface of lettuce leaves into a black pigment called melanine. L-DOPA is converted by PPO into the reactive L-DOPA-quinone which is converted non-enzymatically via dopachrome and indol quinone into the black melanin.

Structure (SMILES) | effect on pink discolouration (formation of the pink dye) (lettuce leaf discs) | effect on the pink dye already formed by lettuce leaf discs [2] | effect on output signal of the screen (brown or pink discolouration of the wound surface) (lettuce leaf discs) | concentration at which the pink discolouration was completely inhibited (lettuce leaf discs) [%] | also measured
C[C@H](N)C(=O)O [L-alanine] | did not show any effect | – | – | – | –
N[C@@H](CS)C(=O)O [L-cysteine] | strongly suppressed the formation of the pink dye | converted into a colourless compound; also recorded: converting the pink dye back into a colourless compound | completely inhibited | ≥ 0.001 | effect on browning response of wound surface [1]: completely be inhibited; also recorded: the browning response was inhibited; effect on black melanin already formed in the L-DOPA assay [2]: not affected; effect on pink discolouration of field-grown lettuce leaf [3]: the pink discolouration is also eliminated; also recorded: the pink discolouration disappeared; effect on black discolouration (melanin formation from L-DOPA) (lettuce PPO; applied simultaneously with L-DOPA (1 mM L-cysteine elsewhere in the source)): completely inhibited; also recorded: can be inhibited; concentration at which L-DOPA discolouration was completely inhibited (lettuce PPO; applied simultaneously with L-DOPA, lettuce leaf discs): ≥ 1 mM
CC(C)C[C@H](N)C(=O)O [L-leucine] | did not show any effect | – | – | – | –
O=C1O[C@H]([C@@H](O)CO)C(O)=C1O [ascorbic acid] | – | convert the pink dye into a colourless compound | – | – | –
O=CC=Cc1ccccc1 [cinnamaldehyde] | formation of the pink dye was inhibited | – | completely inhibited | ≥ 0.01 | –
N[C@@H](CCC(=O)N[C@@H](CS)C(=O)NCC(=O)O)C(=O)O [glutathion] | – | convert the pink dye into a colourless compound | – | – | –
